Consider 14 compounds from ChEMBL document CHEMBL6153136, “Cyclic Peptide Natural Product Inspired Inhibitors of the Free-Living Amoeba Balamuthia mandrillaris” (J Nat Prod, 2025).

In series [1] the test system is Balamuthia mandrillaris. Description: Anti-amoebic activity against Balamuthia mandrillaris CDC V093 (ATCC 50209) assessed as reduction in amoebae viability measured after 72 hrs by luminescent based CellTiter-Glo assay. The format is functional, organism-based.
A short description of series [2]: Hemolytic activity in human red blood cells assessed as hemolysis at 100 uM incubated for 1 hr by absorbance based assay relative to control. The following applies: read-out: Activity. The format is toxicity, cell-based, Erythrocyte.
The subject of another series is A549. As to the kind of experiment: Cytotoxicity against human A549 cells assessed as reduction in cell viability incubated for 72 hrs by CellTiter-Glo reagent based assay. Type of series: functional. The settings on record: A549, 72 h. On the technique in general: ATP-based viability assays read luminescence as a measure of living cells.
The test system of a further series is Lactococcus lactis. As to the kind of experiment: Antibacterial activity against Lactococcus lactis measured after 24 hrs. Type of series: functional, organism-based.
A short description of series [3]: Selectivity index, ratio of IC50 for cytotoxicity against human A549 cells to IC50 for anti-amoebic activity against Balamuthia mandrillaris CDC V093 (ATCC 50209) assessed as reduction in amoebae viability. The format is toxicity, cell-based. The settings on record: read-out: Ratio IC50.
The subject of series [4] is Balamuthia mandrillaris. Description: Anti-amoebic activity against Balamuthia mandrillaris assessed as reduction in amoebae viability measured after 72 hrs by luminescent based CellTiter-Glo assay. Type of series: functional, organism-based.
Another series concerns Naegleria fowleri. Description: Anti-amoebic activity against Naegleria fowleri assessed as reduction in amoebae viability measured for 72 hrs by luminescent based CellTiter-Glo assay. The format is functional, organism-based.
A further series concerns Acanthamoeba castellanii. As to the kind of experiment: Anti-amoebic activity against Acanthamoeba castellanii assessed as reduction in amoebae viability measured for 72 hrs by luminescent based CellTiter-Glo assay. Type of series: functional, organism-based.

In brackets after ≈: the same amount, converted by molar mass. Square brackets hold non-standard residues; d marks the D form. Peptide text beside a SMILES is read from it. dOrn = NCCC[C@@H](N)C(=O)O; Orn = NCCC[C@H](N)C(=O)O Some results are limits rather than exact numbers.

With `CC(C)[C@@H]1NC(=O)[C@@H](CCCCN)NC(=O)[C@H]([C@@H](C)O)NC(=O)[C@@H](CCCN)NC(=O)[C@H](Cc2ccccc2)NC(=O)[C@@H](Cc2ccccc2)NC1=O`, the values for the IC50 with Balamuthia mandrillaris [1] and in the series with A549 were 3.8 µM and above 100 µM, respectively. Besides, the hemolysis at 1 h, 100 µM in series [2] was below 10%.
As for `C[C@@H]1NC(=O)[C@@H](CCCNC(=N)N)NC(=O)[C@H]([C@@H](C)O)NC(=O)[C@@H](CCCN)NC(=O)[C@H](Cc2ccccc2)NC(=O)[C@@H](Cc2ccccc2)NC1=O`, the 50% inhibitory concentration (IC50) (as a rule, the concentration at which inhibition is half-maximal) in the series on Balamuthia mandrillaris [1] was above 20 µM.
`C=C(NC(=O)[C@@H](NC(=O)[C@H](Cc1c[nH]cn1)NC(=O)[C@@H](NC(=O)[C@H](CO)NC(=O)[C@@H]1CS[C@@H](C)[C@H]2NC(=O)C(=C)NC(=O)[C@H](NC(=O)[C@H](CCCCN)NC(=O)[C@H](CCSC)NC(=O)[C@H](CC(N)=O)NC(=O)[C@@H]3CS[C@@H](C)[C@@H](NC(=O)[C@H](CCCNN)NC(=O)[C@@H]4CS[C@@H](C)[C@@H](NC(=O)[C@@H]5CSC[C@@H](NC(=O)/C(=C\C)NC(=O)[C@@H](N)[C@@H](C)CC)C(=O)N[C@@H]([C@@H](C)CC)C(=O)NC(=C)C(=O)N[C@@H]([C@@H](C)CC)C(=O)N5)C(=O)N5CCC[C@H]5C(=O)NCC(=O)N4)C(=O)NCC(=O)N[C@@H](C)C(=O)N[C@@H]([C@@H](C)CC)C(=O)N[C@@H](CCSC)C(=O)NCC(=O)N3)[C@H](C)SC[C@H](NC2=O)C(=O)N[C@@H](Cc2c[nH]cn2)C(=O)N1)[C@@H](C)CC)C(C)C)C(=O)N[C@@H](CCCCN)C(=O)O`: in the series with Lactococcus lactis, inhibition was half-maximal at 4.5 µg/mL (≈ 1.34 µM) (IC50).
Take `CC(C)[C@@H]1NC(=O)[C@@H](CCCNC(=N)N)NC(=O)[C@H]([C@@H](C)O)NC(=O)[C@@H](CCCN)NC(=O)[C@H](Cc2ccccc2)NC(=O)[C@@H](Cc2ccccc2)NC1=O`: the figures for the IC50 in the series with Balamuthia mandrillaris [1], in the series with A549 and with Balamuthia mandrillaris [4] were 5 µM, above 100 µM and 4 µg/mL (≈ 5.23 µM), respectively. Also, in series [3], the selectivity ratio at 72 h is above 20. For the same compound, in series [2], the hemolysis at 1 h, 100 µM was below 10%.
Regarding `CC(C)[C@@H]1NC(=O)[C@@H](CO)NC(=O)[C@H](CCCNC(=N)N)NC(=O)[C@@H](Cc2ccccc2)NC1=O`, the half-maximal inhibitory concentration (IC50) with Naegleria fowleri stood at 6 µg/mL (≈ 12.3 µM).
As to `CC(C)[C@@H]1NC(=O)[C@@H](CCCNC(=N)N)NC(=O)[C@H]([C@@H](C)O)NC(=O)[C@@H](C)NC(=O)[C@H](Cc2ccccc2)NC(=O)[C@@H](Cc2ccccc2)NC1=O`, the IC50 in the series with Balamuthia mandrillaris [1] stood at 11.9 µM. In addition, in series [2], the hemolysis at 1 h, 100 µM was below 10%.
Regarding `CC(C)[C@@H]1NC(=O)[C@@H](CCCNC(=N)N)NC(=O)[C@H]([C@@H](C)O)NC(=O)[C@@H](CCCCN)NC(=O)[C@H](Cc2ccccc2)NC(=O)[C@@H](Cc2ccccc2)NC1=O`, in the series on Balamuthia mandrillaris [1], the half-inhibitory concentration (IC50) turned out to be 4.1 µM. The hemolysis at 1 h, 100 µM in series [2] was below 10%.
Regarding `CC(C)[C@@H]1NC(=O)[C@@H](CCCNC(=N)N)NC(=O)[C@H]([C@@H](C)O)NC(=O)[C@@H](CCCN)NC(=O)[C@H](C)NC(=O)[C@@H](Cc2ccccc2)NC1=O`, the concentration for half-maximal inhibition (IC50) in the series on Balamuthia mandrillaris [1] is above 20 µM.
For `CC(C)[C@@H]1NC(=O)[C@@H](C)NC(=O)[C@H]([C@@H](C)O)NC(=O)[C@@H](CCCN)NC(=O)[C@H](Cc2ccccc2)NC(=O)[C@@H](Cc2ccccc2)NC1=O`, the IC50 in the series on Balamuthia mandrillaris [1] was above 20 µM.
Consider `C[C@@H]1NC(=O)[C@@H](CCCNC(=N)N)NC(=O)[C@H]([C@@H](C)O)NC(=O)[C@@H](CCCN)NC(=O)[C@H](Cc2ccccc2)NC(=O)[C@@H](C)NC1=O`, for which the IC50 in the series on Balamuthia mandrillaris [1] is above 20 µM.
With `CC(C)[C@@H]1NC(=O)[C@@H](CCCCN)NC(=O)[C@H]([C@@H](C)O)NC(=O)[C@@H](CCCCN)NC(=O)[C@H](Cc2ccccc2)NC(=O)[C@@H](Cc2ccccc2)NC1=O`, in the series with Balamuthia mandrillaris [1], the IC50 was found to be 3.9 µM. In series [2], the hemolysis at 1 h, 100 µM was below 10%.
As to `CC(C)[C@H](N)C(=O)N[C@H](Cc1ccccc1)C(=O)N[C@@H](Cc1ccccc1)C(=O)N[C@H](CCCN)C(=O)N[C@H](C(=O)N[C@H](CCCNC(=N)N)C(=O)O)[C@@H](C)O` (H-V[dF]F[dOrn]T[dR]-OH), the IC50 in the series on Balamuthia mandrillaris [1] is above 20 µM. Besides, the hemolysis at 1 h, 100 µM in series [2] was below 10%.
As to `CC(C)[C@@H]1NC(=O)[C@@H](CCCNC(=N)N)NC(=O)[C@H](C)NC(=O)[C@@H](CCCN)NC(=O)[C@H](Cc2ccccc2)NC(=O)[C@@H](Cc2ccccc2)NC1=O` (cyclo(A[dR]V[dF]F[dOrn])), the half-maximal inhibitory concentration (IC50) in the series with Balamuthia mandrillaris [1] was 8.5 µM; in the series with A549 it was above 100 µM. In addition, in series [2], the hemolysis at 1 h, 100 µM was below 10%.
Regarding `NCCC[C@@H]1NC(=O)[C@@H](CCCN)NC(=O)[C@H](Cc2ccccc2)NC(=O)[C@@H](Cc2ccccc2)NC(=O)[C@H](Cc2ccccc2)NC(=O)[C@@H](CCCN)NC1=O` (cyclo(F[dF]F[dOrn][Orn][dOrn])), the concentration for half-maximal inhibition (IC50) in the series on Acanthamoeba castellanii amounted to 5.3 µg/mL (≈ 6.76 µM).
